Data published in patent US20150020916A1, “Antiperspirant Spray Devices and Compositions” (The Procter & Gamble Company, priority 2013, published 2015).

Text: (§1) Solubility may be determined by measuring the amount of light transmittance (a light transmittance value) through a simple mixture of the non-volatile silicone fluid and liquid activation enhancer at the same weight/weight concentrations as in a final antiperspirant composition.
as §1, with “Solubility of a liquid activation enhancer in a non-volatile silicone” for “Solubility”, “(light” for “(a light”
The Spectronic Genesys 10 Vis utilizes a tungsten-halogen light source and has a spectral bandwidth of 5 nm, a wavelength range of 325 to 1100 nm, accuracy of ±1 nm and a repeatability of ±0.5 nm. Readouts include absorbance, transmittance and concentration. The spectrophotometer is set to 640 nm wavelength and the percent transmittance mode/readout. Polystyrene spectrometer cuvettes having a 1 cm optical light path and transmittance between ˜340 nm and ˜900 nm are used. One suitable example of a spectrometer cuvette is available from VWR International LLC under Catalog #97000-584 having a 2.5 to 4.5 ml capacity. The spectrophotometer is calibrated according to the manufacturer's instructions using a reference cuvette and composition comprised of just the non-volatile silicone fluid of interest. For example, if the test composition comprises 50 centistoke dimethicone and 15% w/w of isopropyl myristate, then the spectrometer is calibrated using a cuvette containing just 50 centistoke dimethicone. Sample cuvettes are filled sufficiently with a test composition of a non-volatile silicone fluid and liquid activation enhancer so that the light path of the spectrophotometer passes through the test composition in the cuvette. The sample cuvettes are shaken well just prior to taking a light transmittance reading.

Compound	light transmittance value	solubility in 50 centistoke dimethicone
CCCCCCCCCCC(CO)CCCCCCCC (centres unmarked) [octyldodecanol]		soluble in the 50 centistoke dimethicone at some (lower) concentrations
mineral oil		soluble in 50 centistoke dimethicone at some (lower) concentrations
PPG-14 butyl ether		insoluble

More lines, main results first:

light transmittance value	Compound	solubility in 50 centistoke dimethicone
about 100%	CCCCCCCCCCCCCC(C)C [isohexadecane]	soluble
about 101%	CCCCCCCCCCCCCC(=O)OC(C)C [isopropyl myristate]	
about 101%	CCCCCCCCCCCCCCCC(=O)OC(C)C [isopropyl palmitate]	
about 100%	CCCCCCCCCCCCCCCCCC(=O)OCCCC [butyl stearate]	
